The results in this text go back to patent US20070105890A1, “Novel condensed imidazole derivative” (DAINIPPON SUMITOMO PHARMA CO., LTD, priority 2003, published 2007).

Structures can show the parent of a compound that is named as a salt.

T2 sequence (P81425 38-765 limits assumed): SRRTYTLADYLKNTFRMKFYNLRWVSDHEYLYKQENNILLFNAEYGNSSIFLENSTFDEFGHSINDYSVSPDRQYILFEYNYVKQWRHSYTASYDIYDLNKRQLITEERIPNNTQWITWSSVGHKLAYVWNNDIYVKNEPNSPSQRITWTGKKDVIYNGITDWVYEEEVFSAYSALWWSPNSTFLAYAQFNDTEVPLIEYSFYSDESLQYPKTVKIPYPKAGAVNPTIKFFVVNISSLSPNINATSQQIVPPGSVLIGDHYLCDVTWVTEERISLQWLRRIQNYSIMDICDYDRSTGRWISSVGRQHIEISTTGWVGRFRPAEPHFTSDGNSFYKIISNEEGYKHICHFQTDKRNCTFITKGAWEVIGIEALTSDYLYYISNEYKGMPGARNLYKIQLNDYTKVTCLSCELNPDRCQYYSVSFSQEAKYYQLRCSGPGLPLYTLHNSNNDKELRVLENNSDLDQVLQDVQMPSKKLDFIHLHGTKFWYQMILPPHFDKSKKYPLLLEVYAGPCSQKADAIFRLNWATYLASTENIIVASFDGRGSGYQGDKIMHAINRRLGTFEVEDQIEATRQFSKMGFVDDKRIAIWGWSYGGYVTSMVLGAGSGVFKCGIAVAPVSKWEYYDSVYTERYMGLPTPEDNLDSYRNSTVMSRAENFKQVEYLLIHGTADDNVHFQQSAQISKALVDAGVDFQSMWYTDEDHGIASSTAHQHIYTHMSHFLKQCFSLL
T1 sequence (P27487 39-766 limits assumed): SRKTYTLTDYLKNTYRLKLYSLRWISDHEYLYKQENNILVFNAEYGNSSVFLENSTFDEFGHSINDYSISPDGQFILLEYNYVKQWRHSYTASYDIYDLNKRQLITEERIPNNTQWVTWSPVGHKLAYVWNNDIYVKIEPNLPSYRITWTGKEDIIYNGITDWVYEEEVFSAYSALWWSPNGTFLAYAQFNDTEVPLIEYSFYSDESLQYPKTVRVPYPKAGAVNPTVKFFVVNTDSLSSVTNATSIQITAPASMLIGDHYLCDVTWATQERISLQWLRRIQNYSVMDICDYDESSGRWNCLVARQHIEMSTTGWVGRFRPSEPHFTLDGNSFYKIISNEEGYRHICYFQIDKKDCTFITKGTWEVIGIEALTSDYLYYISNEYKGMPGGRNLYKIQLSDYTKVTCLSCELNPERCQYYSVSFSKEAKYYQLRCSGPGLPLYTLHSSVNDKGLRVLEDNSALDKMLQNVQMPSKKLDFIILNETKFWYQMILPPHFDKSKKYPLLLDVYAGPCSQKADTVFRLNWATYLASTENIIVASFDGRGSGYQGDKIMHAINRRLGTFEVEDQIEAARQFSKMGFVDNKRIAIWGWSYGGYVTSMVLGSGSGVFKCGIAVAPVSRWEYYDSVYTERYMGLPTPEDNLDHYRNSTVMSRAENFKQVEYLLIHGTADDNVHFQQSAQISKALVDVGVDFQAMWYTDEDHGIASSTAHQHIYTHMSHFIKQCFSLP

The first assay addresses T1, DPP-IV enzyme (Homo sapiens, UniProt P27487).
T1 construct: Human serum containing DPP-IV enzyme was used in an experiment after being diluted with assay buffer; from tissue; host or cells: human serum
Kind of assay: In Vitro DPP-IV Inhibitory Effect Measurement Test (2), human serum. The assay is classed as biochemical. Particulars: DPP-IV in human serum (diluted 10-fold); substrate Glycyl-L-Proline 4-Methyl-Coumaryl-7-Amide 100 μM; Table 2. Here is the method: In Vitro DPP-IV Inhibitory Effect Measurement Test (2)
Human serum containing DPP-IV enzyme was used in an experiment after being diluted with assay buffer (25 mM Tris-HCl, 140 mM NaCl, 10 mM KCl, pH 7.9) (finally, diluted 10-fold). Each of solutions of each test compound having various concentrations was added to the diluted serum and the resulting mixture was incubated at room temperature. Then, a substrate (Glycyl-L-Proline 4-Methyl-Coumaryl-7-Amide, Peptide Laboratories Co., Ltd.) was added thereto to a final concentration of 100 μM and the reaction was carried out at room temperature.
(§1) Compounds of Examples were used in this test.
As a reminder, the IC50 is the concentration that gives 50% inhibition. Turning to `N[C@@H]1CCCN(c2nc3c4cc(C(=O)O)ccc4[nH]c(=O)c3n2Cc2ccccc2Cl)C1` [Example 48, 2-{(3R)-3-Aminopiperidin-1-yl}-3-(2-chlorobenzyl)-4-oxo-4,5-dihydro-3H-imidazo[4,5-c]quinoline-8-carboxylic acid hydrochloride], the IC50 worked out at 45 nM.

In turn, `Cn1c(=O)c2c(nc(N3CCC[C@@H](N)C3)n2Cc2ccccc2Cl)c2cc3c(cc21)C(=O)OC3` [Example 90, 2-[(3R)-3-Aminopiperidin-1-yl]-3-(2-chlorobenzyl)-5-methyl-5,9-dihydro-3H-furo[3,4-g]imidazo[4,5-c]quinoline-4,7-dione hydrochloride] gave an IC50 of 11 nM.

Regarding `Cn1c(=O)c2c(nc(N3CCC[C@@H](N)C3)n2Cc2ccccc2Cl)c2csc(C(=O)O)c21` [Example 102, 2-[(3R)-3-Aminopiperidin-1-yl]-3-(2-chlorobenzyl)-5-methyl-4-oxo-4,5-dihydro-3H-imidazo[4,5-d]thieno[3,4-b]pyridine-6-carboxylic acid hydrochloride], 12 nM corresponded to half-maximal inhibition (IC50).

Regarding `Cn1c(=O)c2c(nc(N3CCC[C@@H](N)C3)n2Cc2ccccc2Cl)c2c(C(=O)O)c(F)ccc21` [Example 97, 2-[(3R)-3-aminopiperidin-1-yl]-3-(2-chlorobenzyl)-8-fluoro-5-methyl-4-oxo-4,5-dihydro-3H-imidazo[4,5-c]quinoline-9-carboxylic acid hydrochloride], the half-inhibitory concentration (IC50) worked out at 14 nM.

The molecule `COC(=O)c1c2c(nn1Cc1ccc(OC)cc1)c1nc(N3CCC[C@@H](N)C3)n(Cc3ccccc3Cl)c1c(=O)n2C` [Example 94, Methyl 7-[(3R)-3-aminopiperidin-1-yl]-6-(2-chlorobenzyl)-2-(4-methoxybenzyl)-4-methyl-5-oxo-2,4,5,6-tetrahydroimidazo[4,5-d]pyrazolo[4,3-b]pyridine-3-carboxylate hydrochloride] gave an IC50 of 42 nM.

Another assay addresses T2, DPP-IV enzyme (Bos taurus, UniProt P81425).
T2 construct: Bovine plasma containing DPP-IV enzyme was diluted with assay buffer; from tissue; host or cells: bovine plasma
Nature of the assay: In Vitro DPP-IV Inhibitory Effect Measurement Test (1), bovine plasma. The assay is classed as biochemical. Particulars: substrate Glycyl-L-Proline 4-Methyl-Coumaryl-7-Amide, Table 1. Here is the method: In Vitro DPP-IV Inhibitory Effect Measurement Test (1)
Bovine plasma containing DPP-IV enzyme was diluted with assay buffer (25 mM Tris-HCl, 140 mM NaCl, 10 mM KCl, pH=7.9) and 50 μL of the dilution was added to a micro assay plate. After 1 μL of a solution of each compound was added, mixing was conducted, followed by incubation at room temperature. A substrate (Glycyl-L-Proline 4-Methyl-Coumaryl-7-Amide, Peptide Laboratories Co., Ltd.) was diluted to 0.2 mM with the assay buffer, and 50 μL of this solution was added and then stirred, followed by incubation at room temperature. Thereafter, the reaction was terminated by the addition of 100 μL of a 25% aqueous acetic acid solution. The intensity of fluorescence at an excitation wavelength of 360 nm and a measuring wavelength of 460 nm was measured by the use of a fluorescent plate reader. The difference in intensity of fluorescence between a background well in which the reaction had been terminated by previously adding a 25% aqueous acetic acid solution before the addition of the substrate solution and a control well to which no compound had been added was taken as 100%. The intensity of fluorescence of a well containing the compound was interpolated and the residual enzyme activity in the case of the addition of the compound was calculated as a relative value.
as §1
Consider `Cn1ccc2nc(N3CCC[C@@H](N)C3)n(Cc3cc(F)ccc3Cl)c2c1=O` [Example 11], for which the concentration for half-maximal inhibition (IC50) was 44 nM. This lies in the double-digit nanomolar range.

Turning to `N[C@@H]1CCCN(c2nc3cc(C(=O)O)[nH]c(=O)c3n2Cc2ccccc2Cl)C1` [Example 13], 5 nM corresponded to half-maximal inhibition (IC50).

For the molecule `Cn1ccc2nc(N3CCC[C@@H](N)C3)n(Cc3ccccc3Cl)c2c1=O` [Example 4, 2-[(3R)-3-Aminopiperidin-1-yl]-3-(2-chlorobenzyl)-5-methyl-3,5-dihydro-4H-imidazo[4,5-c]pyridin-4-one], the IC50 was 68 nM.

Consider `N[C@@H]1CCCN(c2nc3ccn(-c4cccc(F)c4)c(=O)c3n2Cc2ccccc2Cl)C1` [Example 30], for which half-maximal inhibition (IC50) was put at 203 nM.

Consider `Cn1c(C#N)cc2nc(N3CCC[C@@H](N)C3)n(Cc3ccccc3Cl)c2c1=O` [Example 2, 2-[(3R)-3-Aminopiperidin-1-yl]-3-(2-chlorobenzyl)-5-methyl-4-oxo-4,5-dihydro-3H-imidazo[4,5-c]pyridine-6-carbonitrile hydrochloride], for which inhibition was half-maximal at 11 nM (IC50).

`COc1cccc(CC(=O)c2cc3nc(N4CCC[C@@H](N)C4)n(Cc4ccccc4Cl)c3c(=O)n2C)c1` [Example 38] registered an IC50 of 112 nM.

The molecule `N[C@@H]1CCCN(c2nc3ccn(CC(=O)c4ccccc4)c(=O)c3n2Cc2ccccc2Cl)C1` [Example 7] registered an IC50 of 1.4 nM.
